Measurements: ChEMBL document CHEMBL3797029, “Purinylpyridinylamino-based DFG-in/αC-helix-out B-Raf inhibitors: Applying mutant versus wild-type B-Raf selectivity indices for compound profiling” (Bioorg Med Chem, 2016)
pEC50: −log10 of the molar value.

Tests used:
[1] = system: RIPK2 (Receptor-interacting serine/threonine-protein kinase 2); test: Inhibition of partial length wild type human RIPK2 expressed in bacterial system assessed as enzyme activity at 1 uM relative to control; parameters: scale not given: the % may be the effect or the level left
[2] = biological target: Ephrin type-A receptor 4 (Homo sapiens) (UniProt P54764); test: Inhibition of partial length wild type human EPHA4 expressed in bacterial system assessed as enzyme activity at 1 uM relative to control; parameters: scale not given: the % may be the effect or the level left
[3] = system: MIA PaCa-2; test: Selectivity index, ratio of EC50 for wild type B-Raf in human MIAPaCa2 cells to IC50 for B-Raf V600E mutant in human A375 cells; assay type: cell-based
[4] = biological target: Calcium/calmodulin-dependent protein kinase type IV (Homo sapiens) (UniProt Q16566); test: Inhibition of partial length wild type human CAMK4 expressed in bacterial system assessed as enzyme activity at 1 uM relative to control; parameters: scale not given: the % may be the effect or the level left
[5] = biological target: Mitogen-activated protein kinase 1 (Homo sapiens) (UniProt P28482); test: Inhibition of full length wild type human ERK2 expressed in bacterial system assessed as enzyme activity at 1 uM relative to control; parameters: scale not given: the % may be the effect or the level left
[6] = biological target: Serine/threonine-protein kinase 32B (Homo sapiens) (UniProt Q9NY57); test: Inhibition of full length wild type human YANK2 expressed in bacterial system assessed as enzyme activity at 1 uM relative to control; parameters: scale not given: the % may be the effect or the level left
[7] = biological target: Serine/threonine-protein kinase PLK4 (Homo sapiens) (UniProt O00444); test: Inhibition of partial length wild type human PLK4 expressed in mammalian system assessed as enzyme activity at 1 uM relative to control; parameters: scale not given: the % may be the effect or the level left
[8] = biological target: Ribosomal protein S6 kinase alpha-5 (Homo sapiens) (UniProt O75582); test: Inhibition of partial length wild type human RPS6KA5 (N-terminal Kinase Domain 1) expressed in bacterial system assessed as enzyme activity at 1 uM relative to control; parameters: scale not given: the % may be the effect or the level left
[9] = biological target: Calcium/calmodulin-dependent protein kinase type II subunit delta (Homo sapiens) (UniProt Q13557); test: Inhibition of partial length wild type human CAMK2delta expressed in bacterial system assessed as enzyme activity at 1 uM relative to control; parameters: scale not given: the % may be the effect or the level left
[10] = biological target: Mitogen-activated protein kinase kinase kinase 9 (Homo sapiens) (UniProt P80192); test: Inhibition of partial length wild type human MLK1 expressed in bacterial system assessed as enzyme activity at 1 uM relative to control; parameters: scale not given: the % may be the effect or the level left
[11] = biological target: Tyrosine-protein kinase Lck (Homo sapiens) (UniProt P06239); test: Inhibition of partial length wild type human LCK expressed in bacterial system assessed as enzyme activity at 1 uM relative to control; parameters: scale not given: the % may be the effect or the level left
[12] = biological target: Tyrosine-protein kinase Fyn (Homo sapiens) (UniProt P06241); test: Inhibition of partial length wild type human FYN expressed in bacterial system assessed as enzyme activity at 1 uM relative to control; parameters: scale not given: the % may be the effect or the level left
[13] = biological target: Dual specificity protein kinase CLK4 (Homo sapiens) (UniProt Q9HAZ1); test: Inhibition of partial length wild type human CLK4 expressed in bacterial system assessed as enzyme activity at 1 uM relative to control; parameters: scale not given: the % may be the effect or the level left
[14] = biological target: Aurora kinase A (Homo sapiens) (UniProt O14965); test: Inhibition of partial length wild type human AURKA expressed in mammalian system assessed as enzyme activity at 1 uM relative to control; parameters: scale not given: the % may be the effect or the level left
[15] = biological target: Serine/threonine-protein kinase Nek4 (Homo sapiens) (UniProt P51957); test: Inhibition of full length wild type human NEK4 expressed in mammalian system assessed as enzyme activity at 1 uM relative to control; parameters: scale not given: the % may be the effect or the level left
[16] = biological target: RAC-beta serine/threonine-protein kinase (Homo sapiens) (UniProt P31751); test: Inhibition of partial length wild type human AKT2 expressed in bacterial system assessed as enzyme activity at 1 uM relative to control; parameters: scale not given: the % may be the effect or the level left
[17] = biological target: Interleukin-1 receptor-associated kinase 4 (Homo sapiens) (UniProt Q9NWZ3); test: Inhibition of partial length wild type human IRAK4 expressed in mammalian system assessed as enzyme activity at 1 uM relative to control; parameters: scale not given: the % may be the effect or the level left
[18] = biological target: Serine/threonine-protein kinase B-raf (Homo sapiens, UniProt P15056); test: Inhibition of wild type B-Raf in human MIAPaCa2 cells assessed as reduction in ERK phosphorylation preincubated for 1 hr by Western blot method; assay type: cell-based, MIA PaCa-2
[19] = biological target: Testis-specific serine/threonine-protein kinase 1 (Homo sapiens) (UniProt Q9BXA7); test: Inhibition of full length wild type human TSSK1B expressed in bacterial system assessed as enzyme activity at 1 uM relative to control; parameters: scale not given: the % may be the effect or the level left
[20] = biological target: Cyclin-dependent kinase 4/cyclin D1 (Homo sapiens) (UniProt P11802+P24385); test: Inhibition of full length wild type human CDK4-cyclinD1 expressed in mammalian system assessed as enzyme activity at 1 uM relative to control; parameters: scale not given: the % may be the effect or the level left
[21] = biological target: Serine/threonine-protein kinase OSR1 (Homo sapiens) (UniProt O95747); test: Inhibition of full length wild type human OSR1 expressed in mammalian system assessed as enzyme activity at 1 uM relative to control; parameters: scale not given: the % may be the effect or the level left
[22] = biological target: Dual specificity protein kinase CLK2 (Homo sapiens) (UniProt P49760); test: Inhibition of partial length wild type human CLK2 expressed in bacterial system assessed as enzyme activity at 1 uM relative to control; parameters: scale not given: the % may be the effect or the level left
[23] = biological target: Epithelial discoidin domain-containing receptor 1 (Homo sapiens) (UniProt Q08345); test: Inhibition of partial length wild type human DDR1 expressed in bacterial system assessed as enzyme activity at 1 uM relative to control; parameters: scale not given: the % may be the effect or the level left
[24] = biological target: Serine/threonine-protein kinase D2 (Homo sapiens) (UniProt Q9BZL6); test: Inhibition of partial length wild type human PRKD2 expressed in bacterial system assessed as enzyme activity at 1 uM relative to control; parameters: scale not given: the % may be the effect or the level left
[25] = biological target: Vascular endothelial growth factor receptor 2 (Homo sapiens) (UniProt P35968); test: Inhibition of partial length wild type human VEGFR2 expressed in mammalian system assessed as enzyme activity at 1 uM relative to control; parameters: scale not given: the % may be the effect or the level left
[26] = biological target: Rho-associated protein kinase 2 (Homo sapiens) (UniProt O75116); test: Inhibition of partial length wild type human ROCK2 expressed in mammalian system assessed as enzyme activity at 1 uM relative to control; parameters: scale not given: the % may be the effect or the level left
[27] = biological target: Platelet-derived growth factor receptor beta (Homo sapiens) (UniProt P09619); test: Inhibition of partial length wild type human PDGFRbeta expressed in bacterial system assessed as enzyme activity at 1 uM relative to control; parameters: scale not given: the % may be the effect or the level left
[28] = biological target: Ribosomal protein S6 kinase beta-1 (Homo sapiens) (UniProt P23443); test: Inhibition of partial length wild type human S6K1 expressed in mammalian system assessed as enzyme activity at 1 uM relative to control; parameters: scale not given: the % may be the effect or the level left
[29] = biological target: Fibroblast growth factor receptor 1 (Homo sapiens) (UniProt P11362); test: Inhibition of partial length wild type human FGFR1 expressed in bacterial system assessed as enzyme activity at 1 uM relative to control; parameters: scale not given: the % may be the effect or the level left
[30] = biological target: Serine/threonine-protein kinase mTOR (Homo sapiens) (UniProt P42345); test: Inhibition of partial length wild type human MTOR expressed in mammalian system assessed as enzyme activity at 1 uM relative to control; parameters: scale not given: the % may be the effect or the level left
[31] = biological target: Phosphatidylinositol 4,5-bisphosphate 3-kinase catalytic subunit delta isoform (Homo sapiens) (UniProt O00329); test: Inhibition of partial length wild type human PIK3CD expressed in mammalian system assessed as enzyme activity at 1 uM relative to control; parameters: scale not given: the % may be the effect or the level left
[32] = biological target: Rhodopsin kinase GRK1 (Homo sapiens) (UniProt Q15835); test: Inhibition of full length wild type human GRK1 expressed in mammalian system assessed as enzyme activity at 1 uM relative to control; parameters: scale not given: the % may be the effect or the level left
Sequence of Rhodopsin kinase GRK1 (Homo sapiens) (Q15835 whole entry): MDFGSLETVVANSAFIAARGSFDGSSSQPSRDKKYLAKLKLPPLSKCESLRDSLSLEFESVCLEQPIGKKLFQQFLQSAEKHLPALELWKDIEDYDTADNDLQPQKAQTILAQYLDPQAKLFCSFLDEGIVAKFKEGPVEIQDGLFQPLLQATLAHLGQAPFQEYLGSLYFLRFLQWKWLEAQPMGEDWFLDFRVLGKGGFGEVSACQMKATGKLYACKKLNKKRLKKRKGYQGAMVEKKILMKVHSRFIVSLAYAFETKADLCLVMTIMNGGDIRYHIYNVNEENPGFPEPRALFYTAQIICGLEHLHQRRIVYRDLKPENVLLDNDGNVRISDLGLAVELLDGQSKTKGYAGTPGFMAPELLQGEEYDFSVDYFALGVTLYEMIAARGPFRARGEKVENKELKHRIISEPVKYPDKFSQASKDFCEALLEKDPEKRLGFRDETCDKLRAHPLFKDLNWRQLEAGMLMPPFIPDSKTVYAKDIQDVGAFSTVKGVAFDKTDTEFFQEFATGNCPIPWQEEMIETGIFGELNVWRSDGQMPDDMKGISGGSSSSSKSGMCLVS

Sequence of Aurora kinase A (Homo sapiens) (O14965 whole entry): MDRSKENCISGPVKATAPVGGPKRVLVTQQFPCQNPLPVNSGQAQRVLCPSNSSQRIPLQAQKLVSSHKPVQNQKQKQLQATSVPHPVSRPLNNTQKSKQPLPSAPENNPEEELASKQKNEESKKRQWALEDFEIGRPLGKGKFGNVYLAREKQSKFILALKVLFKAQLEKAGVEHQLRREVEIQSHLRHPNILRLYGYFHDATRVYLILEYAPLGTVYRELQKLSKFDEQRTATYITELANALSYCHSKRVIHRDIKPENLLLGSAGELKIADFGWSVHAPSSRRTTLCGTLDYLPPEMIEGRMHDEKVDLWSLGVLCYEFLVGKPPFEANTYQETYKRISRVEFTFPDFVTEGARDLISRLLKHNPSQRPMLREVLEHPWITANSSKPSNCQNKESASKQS
Sequence of Serine/threonine-protein kinase Nek4 (Homo sapiens) (P51957 whole entry, looked up): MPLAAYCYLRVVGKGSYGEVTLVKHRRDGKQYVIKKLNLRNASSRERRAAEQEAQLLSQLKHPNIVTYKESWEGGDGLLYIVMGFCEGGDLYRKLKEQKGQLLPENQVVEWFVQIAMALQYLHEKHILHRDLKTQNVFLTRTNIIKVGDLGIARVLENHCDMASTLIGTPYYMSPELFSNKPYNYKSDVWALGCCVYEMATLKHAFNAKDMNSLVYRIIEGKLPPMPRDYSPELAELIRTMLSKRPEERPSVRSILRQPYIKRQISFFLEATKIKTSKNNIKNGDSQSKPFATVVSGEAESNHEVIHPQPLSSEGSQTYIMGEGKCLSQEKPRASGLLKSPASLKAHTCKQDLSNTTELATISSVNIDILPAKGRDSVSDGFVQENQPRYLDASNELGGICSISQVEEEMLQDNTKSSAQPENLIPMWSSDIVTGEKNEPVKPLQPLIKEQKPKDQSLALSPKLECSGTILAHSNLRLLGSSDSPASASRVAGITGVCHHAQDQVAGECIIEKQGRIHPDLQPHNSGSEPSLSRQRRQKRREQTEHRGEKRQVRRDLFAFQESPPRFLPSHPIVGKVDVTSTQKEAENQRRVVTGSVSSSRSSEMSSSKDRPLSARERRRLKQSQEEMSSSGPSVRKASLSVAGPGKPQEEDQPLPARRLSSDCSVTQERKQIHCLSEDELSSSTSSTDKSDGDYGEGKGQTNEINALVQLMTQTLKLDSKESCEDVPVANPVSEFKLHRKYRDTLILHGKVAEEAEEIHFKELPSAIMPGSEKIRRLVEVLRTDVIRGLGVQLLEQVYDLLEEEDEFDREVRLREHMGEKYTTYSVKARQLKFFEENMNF
Sequence of Dual specificity protein kinase CLK2 (Homo sapiens) (P49760 whole entry, looked up, the tested form may be a part): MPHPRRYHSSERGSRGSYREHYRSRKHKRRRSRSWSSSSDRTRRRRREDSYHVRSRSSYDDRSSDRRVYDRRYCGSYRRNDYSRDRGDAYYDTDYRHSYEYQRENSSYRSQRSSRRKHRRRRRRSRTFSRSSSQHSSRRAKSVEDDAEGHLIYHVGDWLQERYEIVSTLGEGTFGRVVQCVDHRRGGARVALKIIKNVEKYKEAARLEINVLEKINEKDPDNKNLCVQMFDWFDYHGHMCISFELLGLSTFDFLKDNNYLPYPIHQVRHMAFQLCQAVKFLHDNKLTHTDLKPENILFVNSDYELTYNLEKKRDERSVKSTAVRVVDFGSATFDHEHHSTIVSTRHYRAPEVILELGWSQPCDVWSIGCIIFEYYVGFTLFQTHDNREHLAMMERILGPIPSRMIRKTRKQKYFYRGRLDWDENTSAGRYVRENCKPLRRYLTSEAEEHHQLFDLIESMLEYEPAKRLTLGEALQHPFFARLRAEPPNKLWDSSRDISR
Sequence of Vascular endothelial growth factor receptor 2 (Homo sapiens) (P35968 whole entry): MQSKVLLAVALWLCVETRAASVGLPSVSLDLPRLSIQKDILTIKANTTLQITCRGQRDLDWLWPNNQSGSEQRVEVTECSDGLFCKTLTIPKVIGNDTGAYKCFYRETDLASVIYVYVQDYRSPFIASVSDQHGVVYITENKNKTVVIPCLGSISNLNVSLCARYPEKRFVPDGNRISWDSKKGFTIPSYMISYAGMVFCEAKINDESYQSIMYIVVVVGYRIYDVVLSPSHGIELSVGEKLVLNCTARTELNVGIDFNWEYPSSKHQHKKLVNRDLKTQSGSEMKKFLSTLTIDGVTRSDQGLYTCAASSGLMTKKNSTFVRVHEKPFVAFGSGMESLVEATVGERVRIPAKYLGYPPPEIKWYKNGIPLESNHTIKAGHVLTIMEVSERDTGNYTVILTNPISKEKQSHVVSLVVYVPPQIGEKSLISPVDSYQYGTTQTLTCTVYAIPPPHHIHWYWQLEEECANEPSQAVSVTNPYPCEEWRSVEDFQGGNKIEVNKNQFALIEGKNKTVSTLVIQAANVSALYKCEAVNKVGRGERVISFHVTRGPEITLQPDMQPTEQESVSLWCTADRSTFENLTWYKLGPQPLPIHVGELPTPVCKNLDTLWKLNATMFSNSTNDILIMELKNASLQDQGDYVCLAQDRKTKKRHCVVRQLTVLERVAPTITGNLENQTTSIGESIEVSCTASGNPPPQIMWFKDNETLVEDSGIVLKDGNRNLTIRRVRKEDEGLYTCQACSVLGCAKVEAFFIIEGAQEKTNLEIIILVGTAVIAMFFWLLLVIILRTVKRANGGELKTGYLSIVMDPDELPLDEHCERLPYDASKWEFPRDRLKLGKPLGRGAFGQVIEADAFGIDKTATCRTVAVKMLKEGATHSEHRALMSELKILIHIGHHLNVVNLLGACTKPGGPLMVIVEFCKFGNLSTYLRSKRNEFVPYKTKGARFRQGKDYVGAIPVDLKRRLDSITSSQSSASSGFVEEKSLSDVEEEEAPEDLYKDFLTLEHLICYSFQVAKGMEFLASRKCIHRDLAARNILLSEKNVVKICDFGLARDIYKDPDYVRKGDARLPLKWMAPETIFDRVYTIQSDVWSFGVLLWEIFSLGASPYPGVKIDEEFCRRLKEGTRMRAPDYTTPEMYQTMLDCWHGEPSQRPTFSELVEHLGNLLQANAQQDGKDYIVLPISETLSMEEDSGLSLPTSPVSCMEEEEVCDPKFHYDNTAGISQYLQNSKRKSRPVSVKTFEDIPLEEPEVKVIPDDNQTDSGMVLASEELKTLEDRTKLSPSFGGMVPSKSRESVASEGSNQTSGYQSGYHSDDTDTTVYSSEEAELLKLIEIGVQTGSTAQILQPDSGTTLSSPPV
Sequence of Ribosomal protein S6 kinase beta-1 (Homo sapiens) (P23443 whole entry, looked up): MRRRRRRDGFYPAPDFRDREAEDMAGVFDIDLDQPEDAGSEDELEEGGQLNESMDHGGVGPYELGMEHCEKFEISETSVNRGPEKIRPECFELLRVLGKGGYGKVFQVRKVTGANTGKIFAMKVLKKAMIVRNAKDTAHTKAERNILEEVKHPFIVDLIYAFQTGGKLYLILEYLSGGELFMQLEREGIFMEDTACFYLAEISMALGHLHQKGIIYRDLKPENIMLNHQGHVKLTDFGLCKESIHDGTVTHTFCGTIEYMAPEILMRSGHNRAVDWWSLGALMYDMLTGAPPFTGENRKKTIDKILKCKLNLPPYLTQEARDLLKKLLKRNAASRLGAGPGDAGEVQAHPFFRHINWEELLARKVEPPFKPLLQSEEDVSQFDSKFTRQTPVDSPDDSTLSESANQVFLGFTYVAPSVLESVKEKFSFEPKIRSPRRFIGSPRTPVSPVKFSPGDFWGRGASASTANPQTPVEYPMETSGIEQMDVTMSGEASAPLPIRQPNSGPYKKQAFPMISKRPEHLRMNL
Sequence of RAC-beta serine/threonine-protein kinase (Homo sapiens) (P31751 whole entry): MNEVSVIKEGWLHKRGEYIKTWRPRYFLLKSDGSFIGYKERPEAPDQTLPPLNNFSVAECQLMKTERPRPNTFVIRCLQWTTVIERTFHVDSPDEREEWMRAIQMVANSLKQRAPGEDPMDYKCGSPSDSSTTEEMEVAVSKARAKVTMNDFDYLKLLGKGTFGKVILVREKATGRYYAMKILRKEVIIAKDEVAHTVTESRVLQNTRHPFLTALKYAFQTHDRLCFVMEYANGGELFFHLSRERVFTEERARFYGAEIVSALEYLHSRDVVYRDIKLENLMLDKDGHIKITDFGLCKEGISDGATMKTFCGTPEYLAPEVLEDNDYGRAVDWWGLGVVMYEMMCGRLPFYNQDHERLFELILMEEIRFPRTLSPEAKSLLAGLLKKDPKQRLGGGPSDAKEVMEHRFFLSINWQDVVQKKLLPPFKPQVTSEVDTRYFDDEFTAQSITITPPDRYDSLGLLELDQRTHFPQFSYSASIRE
Sequence of Mitogen-activated protein kinase 1 (Homo sapiens) (P28482 whole entry): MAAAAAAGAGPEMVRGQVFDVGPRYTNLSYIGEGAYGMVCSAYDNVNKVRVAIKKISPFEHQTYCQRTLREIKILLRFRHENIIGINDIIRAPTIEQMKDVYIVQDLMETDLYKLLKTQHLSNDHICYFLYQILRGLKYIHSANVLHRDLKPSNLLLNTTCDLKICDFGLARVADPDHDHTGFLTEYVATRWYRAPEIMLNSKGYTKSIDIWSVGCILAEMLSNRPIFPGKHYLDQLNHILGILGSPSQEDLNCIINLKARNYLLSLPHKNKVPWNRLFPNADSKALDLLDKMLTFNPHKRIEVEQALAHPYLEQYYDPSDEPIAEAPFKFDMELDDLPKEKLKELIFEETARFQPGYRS

Activity [1]: 40% | Activity [2]: 90% | Activity [4]: 83% | Activity [5]: 98% | Activity [6]: 100% | Activity [7]: 91% | Activity [8]: 100% | Activity [9]: 83% | Activity [10]: 96% | Activity [11]: 79% | Activity [12]: 64% | Activity [13]: 70% | Activity [14]: 73% | Activity [15]: 100% | Activity [16]: 100% | Activity [17]: 99% | pEC50 [18]: 5.75 | Activity [19]: 100% | Activity [20]: 98% | Activity [21]: 88% | Activity [22]: 79% | Activity [23]: 88% | Activity [24]: 88% | Activity [25]: 84% | Activity [26]: 92% | Activity [27]: 73% | Activity [28]: 100% | Activity [29]: 83% | Activity [30]: 100% | Activity [31]: 37% | Activity [32]: 76%
Compound: CN(C)S(=O)(=O)Nc1ccc(F)c(Nc2ncccc2-c2ncnc3[nH]cnc23)c1F
Ratio [3]: 33
